Data taken from patent US9693971B2, “Compositions for alleviating gastrointestinal tract disorders or associated systemic disorders in ruminants and camelids” (FREIE UNIVERSITÄT BERLIN, priority 2012, dated 2017).
“Also recorded” adds a separate entry of the source.

Key:
[1] = target: TRPV4 (Homo sapiens, UniProt Q9HBA0); settings: cited from earlier work
[2] = target: T1, TRPV2 (Homo sapiens, UniProt Q9Y5S1); settings: cited from earlier work
T1 sequence (Q9Y5S1 1-764): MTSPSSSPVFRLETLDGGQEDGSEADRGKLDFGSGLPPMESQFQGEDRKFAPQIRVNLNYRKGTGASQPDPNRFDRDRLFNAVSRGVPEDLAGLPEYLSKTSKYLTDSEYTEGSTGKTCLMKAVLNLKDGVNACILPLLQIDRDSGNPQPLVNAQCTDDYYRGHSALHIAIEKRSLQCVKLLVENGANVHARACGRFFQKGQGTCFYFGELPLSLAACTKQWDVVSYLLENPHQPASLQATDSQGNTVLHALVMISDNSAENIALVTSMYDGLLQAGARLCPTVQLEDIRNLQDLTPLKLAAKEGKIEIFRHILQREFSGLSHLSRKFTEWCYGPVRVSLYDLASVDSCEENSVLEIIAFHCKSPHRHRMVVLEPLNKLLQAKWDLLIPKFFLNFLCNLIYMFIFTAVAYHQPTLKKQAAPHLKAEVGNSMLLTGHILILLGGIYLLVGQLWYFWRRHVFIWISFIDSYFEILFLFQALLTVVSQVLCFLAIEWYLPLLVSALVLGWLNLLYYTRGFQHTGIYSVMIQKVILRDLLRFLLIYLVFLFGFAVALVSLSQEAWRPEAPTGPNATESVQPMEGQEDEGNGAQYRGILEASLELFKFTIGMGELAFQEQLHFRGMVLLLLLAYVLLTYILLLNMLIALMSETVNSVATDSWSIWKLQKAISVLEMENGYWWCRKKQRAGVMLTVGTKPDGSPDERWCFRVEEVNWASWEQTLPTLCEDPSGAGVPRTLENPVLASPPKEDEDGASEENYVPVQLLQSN

[3] = target: TRPA1 (Homo sapiens, UniProt O75762); settings: cited from earlier work
[4] = target: T2, TRPV3 (Homo sapiens, UniProt Q8NET8); settings: cited from earlier work
T2 sequence (Q8NET8 1-790): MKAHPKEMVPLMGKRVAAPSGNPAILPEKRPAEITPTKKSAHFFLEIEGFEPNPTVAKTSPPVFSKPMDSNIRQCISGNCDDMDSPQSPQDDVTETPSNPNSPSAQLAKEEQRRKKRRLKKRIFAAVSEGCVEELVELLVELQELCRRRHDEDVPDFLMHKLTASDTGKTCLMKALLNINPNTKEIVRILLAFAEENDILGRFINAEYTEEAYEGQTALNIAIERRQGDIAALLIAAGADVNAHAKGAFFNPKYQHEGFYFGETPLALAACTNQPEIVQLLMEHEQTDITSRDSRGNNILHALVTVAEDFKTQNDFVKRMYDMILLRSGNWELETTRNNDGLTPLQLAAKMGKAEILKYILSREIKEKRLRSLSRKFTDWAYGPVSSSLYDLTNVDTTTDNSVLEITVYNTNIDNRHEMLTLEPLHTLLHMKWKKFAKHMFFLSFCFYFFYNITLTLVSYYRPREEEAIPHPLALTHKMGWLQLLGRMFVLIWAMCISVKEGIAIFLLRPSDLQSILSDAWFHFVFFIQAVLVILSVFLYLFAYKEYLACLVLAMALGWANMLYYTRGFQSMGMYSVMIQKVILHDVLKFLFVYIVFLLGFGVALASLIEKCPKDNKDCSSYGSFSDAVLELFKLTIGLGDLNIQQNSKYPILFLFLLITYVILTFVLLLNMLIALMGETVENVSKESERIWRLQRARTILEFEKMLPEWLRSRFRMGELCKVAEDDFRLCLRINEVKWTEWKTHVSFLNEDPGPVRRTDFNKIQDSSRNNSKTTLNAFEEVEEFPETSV

[5] = system: rumen epithelium from cattle; experiment: Ussing chamber: ammonium-induced transepithelial short-circuit current (Isc) across isolated rumen epithelium; assay type: cell-based; settings: for influence on ammonium-induced conductivity / transport across rumen epithelium (profile in words): no concentration stated
From the text: The experiments on the intact epithelium take place as already specified (Abdoun, Stumpff et al. 2005; Abdoun, Stumpff et al. 2010). The measuring techniques used are a combination of the Ussing chamber technique developed by Ussing (1949) and the microelectrode technique.
When examining epithelial transport processes with the Ussing chamber, the epithelium is installed in a special chamber, which makes it possible to rinse the two sides of the epithelium (apical: food side; basolateral: blood side) separately of each other with buffer solutions of various composition, wherein the electrophysiological parameters (current and voltage) across the epithelium are traced. Hereby, it is made possible to differentiate between the transport of an uncharged substance (e.g. ammonia, NH3) and the transport of a charged substance (e.g. ammonium, NH4^+), as the former takes place without a change in current and voltage, whereas the latter is coupled with the transfer of a charge and thus changes the transepithelial electrical parameters.
With the help of a special modification, the reaction of individual epithelia to solution changes, taking place very rapidly and smoothly, is also examined over time. Hereby, for example, the reproducibility of a pharmacological intervention on the same piece of epithelium can very well be examined. This modification of the classic Ussing chamber technique is particularly, albeit not exclusively, used for the comparative “screening” of the various substances which are subject of an aspect of the present invention.
The epithelium is horizontally clamped into a modified Ussing chamber, wherein the mucosal side faces upwards. The chamber made of plexi-glass has a cross-section surface of 0.79 cm^2, which is corrected to 1 cm^2. As a protection against damages on the edges of the epithelium, “edge damage”, a silicone ring is in each case placed between chamber and epithelium. The two resulting chambers (mucosal and serosal) are each supplied by their own perfusion system (4-channel-stand-pump, Ismatec SA). With three-way valves, an independent solution change between altogether eight solutions is possible in the two chambers. During storage, the solutions are gassed in their containers with 100% O2. To warm the solutions up to 37° C., the thin perfusion tubes run through a heat exchanger pump. The suction device (Masterflex R/S, Cole Parmer Instrument Company) present in both chambers guarantees a rapid and safe change of solution. In order to ensure that there are no solution change artefacts when adding agonists and antagonists, the substances are pipetted into the respective solution, wherein the gassing ensures a rapid mixing. In this way, pressure fluctuations or an interruption of the flow through the chamber can be safely precluded.
As in the conventional Ussing chamber technique, there are in each case two electrodes near the tissue and two electrodes distant from the tissue for measuring the transepithelial potential difference and the transepithelial current (Isc). The connections between the Ag/AgCl electrodes, which are filled with 3 M KCl, are established via agar bridges. Just as in Strecker (Strecker 2011), the measuring chamber is connected to a “voltage clamp” installation (Ussing chamber unit) in assembly with a microelectrode amplifier (both Biomedical Instruments Co., Germering). A micromanipulator (MF 500) installed above the measuring chamber offers the possibility to move the microelectrode in fine μm steps. Additionally, a microscope as well as a cold-light source are located above the apparatus.
Menthol (Sigma-Aldrich) was dissolved at a concentration of 1 mol·l^−1 in ethanol and pipetted into the used test solution containing ammonium. For an end concentration of 1 mmol·l^−1, 20 μl of this stock solution was added to 20 ml test solution; for 200 μmol·l^−1 correspondingly less. In control experiments, corresponding amounts of pure ethanol were added to the test solution.

[6] = system: rumen epithelium; experiment: Ca^45 calcium flux across rumen epithelium in conventional Ussing chambers, menthol vs control group; assay type: cell-based; settings: menthol 200 μM or 1 mM; N=4 cattle, n=85 epithelia; FIG. 10A
From the text: (§1) Supplementary, the transport rate of a substance across the epithelium is quantitatively determined by examining the buffer solution prior to and after a defined test period (in conjunction with the methods of an aspect of the present invention for determining the ammonia flux by means of an ammonia electrode (Thermo Scientific Orion 9512HPBNWP, Thermo Fisher Scientific Inc., Waltham, Mass. 02454) while at the same time registering shifts in the solution pH, or measuring the calcium flux with radioactive isotopes).
(§2) For a direct verification of a modulation of the calcium transport across the rumen epithelium, a radioactive calcium isotope (Ca^45) was employed in further experiments. The measurements were carried out in conventional Ussing chambers without continuous perfusion. Herein, tissue of N=4 (cattle) was collected and n=85 epithelia were used therein.
(§3) The isotope was employed on the mucosal side (corresponding to the side on which the food is) and the emergence on the blood side was measured.
Approach: Three groups were formed. One group remained untreated as control. The other two groups were each treated with menthol at a dose of 200 μM or 1 mM, respectively, and compared to the control (100%).

[7] = target: TRPM8 (Homo sapiens, UniProt Q7Z2W7); settings: cited from earlier work
[8] = system: E. coli; settings: 0.3% menthol in feed dry mass (8 g menthol/day) for 30 days, bulls; cited from earlier work
[9] = system: bacteria flora in the ruminal fluid; settings: in vitro, thymol 3-12 g/60 l; cited from earlier work
[10] = system: bacteria flora; settings: 1.5 mM thymol (corresponding to 14 g/60 l ruminal fluid); cited from earlier work
[11] = corresponding to 30 g/60 l; cited from earlier work
[12] = system: rumen epithelium; experiment: Ca^45 calcium flux across rumen epithelium in conventional Ussing chambers, thymol vs basal value; assay type: cell-based, one cow, one sheep; settings: after adding thymol; N=2, n=44 epithelia; FIG. 10B
From the text: as §1, §2, §3
Approach: First, a basal value of the Ca flux across the rumen epithelium was detected. Then a substance was added. The subsequently measured Ca flux was compared to the starting value (100%). […]

Sequence of TRPA1 (O75762 whole entry, species assumed): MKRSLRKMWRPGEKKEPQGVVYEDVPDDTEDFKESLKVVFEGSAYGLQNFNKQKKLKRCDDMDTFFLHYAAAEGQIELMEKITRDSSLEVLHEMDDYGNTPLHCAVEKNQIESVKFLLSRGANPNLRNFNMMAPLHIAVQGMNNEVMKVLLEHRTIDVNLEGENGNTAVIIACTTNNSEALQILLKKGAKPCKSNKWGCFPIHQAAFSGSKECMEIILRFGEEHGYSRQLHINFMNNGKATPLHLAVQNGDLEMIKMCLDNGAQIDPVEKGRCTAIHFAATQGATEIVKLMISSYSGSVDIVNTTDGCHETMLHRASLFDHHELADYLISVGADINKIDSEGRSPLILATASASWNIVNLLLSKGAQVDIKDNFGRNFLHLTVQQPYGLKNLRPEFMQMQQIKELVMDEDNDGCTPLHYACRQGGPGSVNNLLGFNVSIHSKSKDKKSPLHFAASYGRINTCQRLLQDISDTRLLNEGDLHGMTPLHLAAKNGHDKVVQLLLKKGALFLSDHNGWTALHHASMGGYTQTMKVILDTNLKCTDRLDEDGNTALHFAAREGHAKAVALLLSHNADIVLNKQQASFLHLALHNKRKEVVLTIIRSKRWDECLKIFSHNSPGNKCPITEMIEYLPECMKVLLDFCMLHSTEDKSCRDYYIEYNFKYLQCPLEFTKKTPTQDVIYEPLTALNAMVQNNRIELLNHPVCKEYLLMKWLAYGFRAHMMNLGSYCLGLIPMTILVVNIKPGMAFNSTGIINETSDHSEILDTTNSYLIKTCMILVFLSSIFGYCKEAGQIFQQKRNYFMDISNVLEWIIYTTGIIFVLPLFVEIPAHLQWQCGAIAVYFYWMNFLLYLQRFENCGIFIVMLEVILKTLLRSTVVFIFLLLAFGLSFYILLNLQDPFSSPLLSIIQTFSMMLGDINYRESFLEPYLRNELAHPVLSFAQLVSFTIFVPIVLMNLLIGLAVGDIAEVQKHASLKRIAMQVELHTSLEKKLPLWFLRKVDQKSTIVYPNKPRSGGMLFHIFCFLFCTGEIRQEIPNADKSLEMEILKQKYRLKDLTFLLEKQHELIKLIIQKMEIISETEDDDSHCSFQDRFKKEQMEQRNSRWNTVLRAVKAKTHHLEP
Sequence of TRPM8 (Q7Z2W7 whole entry, species assumed): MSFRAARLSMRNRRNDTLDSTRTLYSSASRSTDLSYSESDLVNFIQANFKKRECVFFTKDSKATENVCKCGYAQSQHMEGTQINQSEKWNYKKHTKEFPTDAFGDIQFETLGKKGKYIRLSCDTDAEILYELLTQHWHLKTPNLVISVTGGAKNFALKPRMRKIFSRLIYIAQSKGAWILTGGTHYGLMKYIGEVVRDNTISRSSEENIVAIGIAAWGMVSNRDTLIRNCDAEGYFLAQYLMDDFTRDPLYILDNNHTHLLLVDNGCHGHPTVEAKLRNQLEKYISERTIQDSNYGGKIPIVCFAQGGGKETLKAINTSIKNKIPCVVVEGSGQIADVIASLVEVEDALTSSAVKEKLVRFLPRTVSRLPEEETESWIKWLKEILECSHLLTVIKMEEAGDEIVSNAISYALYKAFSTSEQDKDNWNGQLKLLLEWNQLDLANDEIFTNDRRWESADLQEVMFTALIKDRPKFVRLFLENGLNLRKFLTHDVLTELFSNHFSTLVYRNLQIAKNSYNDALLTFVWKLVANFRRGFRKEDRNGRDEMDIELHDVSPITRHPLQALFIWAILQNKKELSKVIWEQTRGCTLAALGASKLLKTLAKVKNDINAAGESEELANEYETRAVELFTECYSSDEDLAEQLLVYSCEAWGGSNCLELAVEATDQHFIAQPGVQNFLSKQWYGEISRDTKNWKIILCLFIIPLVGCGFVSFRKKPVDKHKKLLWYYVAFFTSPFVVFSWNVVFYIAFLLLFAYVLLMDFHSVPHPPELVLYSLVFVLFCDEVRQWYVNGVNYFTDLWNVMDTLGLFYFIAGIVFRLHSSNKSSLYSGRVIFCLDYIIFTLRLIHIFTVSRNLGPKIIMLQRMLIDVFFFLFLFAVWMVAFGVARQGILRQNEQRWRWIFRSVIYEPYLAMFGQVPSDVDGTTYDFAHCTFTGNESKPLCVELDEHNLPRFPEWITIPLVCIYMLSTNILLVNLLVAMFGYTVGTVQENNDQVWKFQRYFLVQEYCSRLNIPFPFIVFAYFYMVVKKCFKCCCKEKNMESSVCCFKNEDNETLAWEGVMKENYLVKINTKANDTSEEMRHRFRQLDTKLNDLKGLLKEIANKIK
Sequence of TRPV4 (Q9HBA0 whole entry, species assumed): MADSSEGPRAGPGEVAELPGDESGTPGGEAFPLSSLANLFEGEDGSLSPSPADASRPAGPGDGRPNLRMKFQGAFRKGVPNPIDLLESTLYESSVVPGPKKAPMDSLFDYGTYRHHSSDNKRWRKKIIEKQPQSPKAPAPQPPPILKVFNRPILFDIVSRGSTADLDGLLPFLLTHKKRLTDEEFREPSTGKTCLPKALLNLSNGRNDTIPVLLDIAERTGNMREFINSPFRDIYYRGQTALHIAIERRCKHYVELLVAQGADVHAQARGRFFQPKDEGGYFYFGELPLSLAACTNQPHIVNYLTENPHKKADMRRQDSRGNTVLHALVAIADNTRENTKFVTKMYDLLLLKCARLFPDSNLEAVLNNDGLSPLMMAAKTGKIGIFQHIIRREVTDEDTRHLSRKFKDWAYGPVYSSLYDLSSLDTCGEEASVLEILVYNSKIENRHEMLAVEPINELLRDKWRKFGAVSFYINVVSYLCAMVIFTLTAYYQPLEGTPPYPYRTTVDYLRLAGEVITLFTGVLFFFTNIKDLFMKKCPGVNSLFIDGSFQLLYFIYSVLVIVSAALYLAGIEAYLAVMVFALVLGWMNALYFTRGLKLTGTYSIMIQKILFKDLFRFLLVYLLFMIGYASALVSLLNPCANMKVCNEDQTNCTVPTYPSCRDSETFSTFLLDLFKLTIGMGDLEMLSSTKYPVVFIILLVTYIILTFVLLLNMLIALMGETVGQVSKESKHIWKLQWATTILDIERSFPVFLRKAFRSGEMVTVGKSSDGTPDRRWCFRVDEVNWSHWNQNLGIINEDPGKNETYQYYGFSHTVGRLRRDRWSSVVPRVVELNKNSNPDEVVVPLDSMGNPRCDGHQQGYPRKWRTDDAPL

## C=C1CC[C@@H]2[C@](C)(CO)[C@H](O)CC[C@@]2(C)[C@@H]1/C=C/C1=CC(C(C[C@@H]2C(=C)CC[C@@H]3[C@](C)(CO)[C@H](O)CC[C@]32C)C2=CCOC2=O)OC1=O (some centres unmarked) [Bisandrographolide A]
[1]
  Effect on TRPV4: Agonist

## CCCCCc1cc(O)c2c(c1)OC(C)(C)[C@@H]1CCC(C)=C[C@@H]21 [Tetrahydrocannabinol, tetrahydrocannabinol]
[2]
  Effect on TRPV2: Agonist
[3]
  Effect on TRPA1: Agonist

## CC1CCC(C(C)C)C(O)C1 (centres unmarked) [menthol]
[4]
  Effect on TRPV3: nonspecific
[5]; 200 μM menthol in 40 mM NH4^+, n=11, before −30.65
  transepithelial current, Median: −34.21 μA · cm^−2
[5]; 200 μM menthol in 40 mM NH4^+, n=11, before −30.99, washout −26.42
  transepithelial current, MV: −36.34 μA · cm^−2
[5]; 200 μmol·l^−1 to 1 mmol·l^−1 added to solution containing ammonium, apical
  change of transepithelial current or voltage: further considerable rise in the transepithelial current
[5]; 1 mM menthol after 40 mM NH4Cl mucosal, FIG. 1 and 2, 13 measurements, three epithelia
  change of short-circuit current (Isc): further rise in that current; also recorded: statistically significant increase in the current across the epithelium
[5]; 1 mM menthol in 40 mM NH4^+, n=12, before −22.76
  transepithelial current, Median: −26.90 μA · cm^−2
[5]; 1 mM menthol in 40 mM NH4^+, n=12, before −24.20, washout −20.88
  transepithelial current, MV: −28.73 μA · cm^−2
[5]
  influence on ammonium-induced conductivity / transport across rumen epithelium (profile in words): significantly influenced
[6]
  calcium transport across the rumen tissue compared to control group (100%): concentration-dependent increase in the calcium transport
[7]
  Effect on TRPM8: potent TRPM8 agonist
[8]
  influence on the amount of E. coli in the feces: no influence on the amount of E. coli in the feces
[3]
  Effect on TRPA1: Antagonist

## Cc1ccc(C(C)C)c(O)c1 [thymol]
[4]
  Effect on TRPV3: TRPV3 agonist; also recorded: nonspecific
[5]; 100 μM thymol in 40 mM NH4^+, n=4, before −19.30
  transepithelial current, Median: −19.35 μA · cm^−2
[5]; 100 μM thymol in 40 mM NH4^+, n=4, before −22.47, washout −15.82, p = 0.498
  transepithelial current, MV: −22.19 μA · cm^−2
[5]
  influence on ammonium-induced conductivity / transport across rumen epithelium (profile in words): inhibition, which can still be verified after washing out
[9]
  effect on the bacteria flora in the ruminal fluid: no effect on the bacteria flora in the ruminal fluid
[10]
  influence on methane, ammonium, acetate and propionate production: no influence on the methane, ammonium, acetate and propionate production
[11]
  concentration with significant influence on pH, NH3 concentration and production of volatile fatty acids (VFA): ≥ 500 mg/1
[12]
  Ca flux across the rumen epithelium compared to starting value (100%): no significant long-term reduction of the calcium transport; also recorded: trend to increase the calcium resorption
